The values that follow come from patent US20250161309A1, “TOPICAL COMPOSITIONS AND USES THEROF” (TOPADUR PHARMA AG, priority 2022, published 2025).

The subject of data set [1] is C57BL/6 mouse model of alopecia. The data set can be described thus: Topical administration and hair growth in C57BL/6 mouse model of alopecia (telogen phase, clipped dorsal skin). It counts as in vivo. To be noted: for animals with visual melanogenesis in peeled skin: end of study; for day of skin colour change from pink to light grey (transition from telogen to anagen phase): after hair growth induction; for adverse effects in relation to general health or body weight: topical twice daily, 5 days/week, 4 weeks, compared to vehicle group. An excerpt:
Dorsal hair of C57BL/6 mouse is known to have a time synchronized hair cycle. From about 18-21 days of age (2-3 weeks old) and 47-95 days of age (6-14 weeks old), the dorsal hair are in the telogen/quiescent phase (visually pink skin) [Lee B H, Lee J S, Kim Y C. Hair growth-promoting effects of lavender oil in C57BL/6 mice. Toxicol Res. (2016) 32(2):103-108; Choi H I, Kang B M, Jang J, Hwang S T, Kwon O. Novel effect of sildenafil on hair growth. Biochem Biophys Res Commun. (2018) 505(3):685-691]. C57BL/6 mouse therefore is a well-established model for studying hair growth promotion.
Male and female C57BL/6 mice of 6 to 9 weeks of age in stable telogen phase of hair growth cycle were used (obtained from Vivo Bio Tech Ltd, Telangana, India).
50 μL of a clear solution of respective 0.02%, 0.002% and 0.0002% (w/v) concentrations of Cpd 1 in the corresponding vehicle (PEG-400:EtOH/7:3) (PEG-400: Central Drug House Ltd. Dehli, India; Ethanol: Changshu Hongsheng fine chemicals Co. Ltd. China) and the positive control, 2% solution (female) or 5% (male) (w/v) Minoxidil (Chemieliva, China) in the corresponding vehicle (PEG-400:EtOH/7:3) were topically applied to the clipped area on the dorsal back of the mice. The solutions covered a circular area of approximately 2 cm^2. The treatment regimen was twice daily application for 5 days/week for total of 4 weeks.
The selected animals on day 1 weighted on average 20.05 g±0.17 ranging from 19.8 to 20.2 g. The hair on the dorsal back (approx. 4×4 cm^2) of these animals were clipped without touching the skin of the animal, using an electric clipper, on day 0 before the treatment with Cpd 1 and the hair was collected. The treatment followed by visual analysis for anagen onset, skin color change and appearance of any hair growth were monitored. After completion of the experiment, the dorsal skin of all the animals was removed and visual melanogenesis was reported. The skin sections were then preserved in 10% formalin solution for further histopathology analysis.
Animals were observed during 30 days and the hair growth score was recorded on daily basis. The criteria for scoring of hair growth is as follows: no hair growth, pink skin—score 0; skin colour changes from pink to grey/light grey without visible hair growth—score 0.5 onset of anagen (skin colour changes from grey/light grey to dark grey/black without visible hair growth)—score 1; sparse hair growth—score 1.5; diffuse short hair growth—score 2, moderate hair growth—score 2.5 and dense, normal coat hair—score 3 (Lee B H, Lee J S, Kim Y C. Hair growth-promoting effects of lavender oil in C57BL/6 mice. Toxicol Res. (2016) 32(2):103-108).
Photographs of the animals were captured before the initiation and during the course of the study.
After completion of the experiments all animals were sacrificed by euthanasia (Choi H I, Kang B M, Jang J, Hwang S T, Kwon O. Novel effect of sildenafil on hair growth. Biochem Biophys Res Commun. (2018) 505(3):685-691). The dorsal skin of each animal was then removed by peeling. The peeled skin was spread and checked visually for the induction of melanogenesis indicated by visual blackening on the reverse side of the skin. The skin samples were evenly spread on a pre-labelled glass slide and kept in 10% formalin until further use. Later, the skin samples were embedded in paraffin and sectioned at 5 microns using a microtome and the corresponding slides per animal were prepared. The slides obtained were used for Haematoxylin & Eosin (H&E) staining and in the transverse and longitudinal sections' photomicrographs data, the total number of follicles in the dermis and the sub cutis were determined for each animal. The skin thickness was measured using Image J 1.44 software.
The statistical analyses were performed using GraphPad Prism 9.0.0 software. Statistical significance was determined by One-way or Two-Way ANOVA followed by Tukey's multiple comparison test. […]

The test system of data set [2] is battery of 44 targets (SafetyScreen44). The data set can be described thus: Off-target selectivity, (radio)ligand binding and enzymatic assays, SafetyScreen44 (Eurofins Cerep). To be noted: 100 nM; all 44 targets of Table 4 (incl. hERG, PDE3A, PDE4D2, COX1, COX2); no significant responses. More on the design: species or system human. As for the experimental part:
In vitro pharmacological profiling is increasingly being used earlier in the drug discovery process to identify undesirable off-target activity profiles that could hinder or halt the development of candidate drugs or even lead to market withdrawal if discovered after a drug is approved (Bowes N, et. al., Nature Reviews Drug Discovery 11(12):909-22). Thus, the Off-target selectivity of Compound 1 at 100 nM was tested in (radio)ligand binding and enzymatic assays against a battery of 44 targets (SafetyScreen44™, atEurofins Cerep, France).

SMILES strings stand for the structures.

Take `CCCOc1ccc(S(=O)(=O)N2CCC(CCO[N+](=O)[O-])(CCO[N+](=O)[O-])CC2)cc1-c1nc2c(CCC)cn(CC)c2c(=O)[nH]1` [Cpd 1, (1-((3-(5-ethyl-4-oxo-7-propyl-4,5-dihydro-3H-pyrrolo[3,2-d]pyrimidin-2-yl)-4-propoxyphenyl)sulfonyl)piperidine-4,4-diyl)bis(ethane-2,1-diyl) dinitrate]: in data set [1] (female mice), the “number of follicles in the subcutis layer of the skin and total follicle counts compared to control group” value was “considerable higher number”; the “adverse effects in relation to general health or body weight” value is reported as “No adverse effects”. Besides, the “animals with visual melanogenesis in peeled skin” value (shortened to “animals with visual melanogenesis”) in data set [1] (female mice, 0.0002% (w/v)) is 2/5. Besides, the “anagen hair follicles (histology, H&E) compared to vehicle and 2% Minoxidil” value in data set [1] (female mice, 0.0002% and 0.002% groups) is “more”. In data set [1] (female mice, 0.002% (w/v)), the “day of skin colour change from pink to light grey (transition from telogen to anagen phase)” value was 10 day and the “animals with visual melanogenesis” value is 2/5. Besides, the “hair growth score among treatment groups” value in data set [1] (female mice, 0.002% (w/v), at day 30, followed by low dose groups and Minoxidil group) is “maximal”. Further, the “hair growth (score) compared to vehicle group” value in data set [1] (female mice, 0.002% (w/v), from day 26 on) was “significantly higher”. Moreover, the “skin thickness compared to vehicle and 2% Minoxidil groups” value in data set [1] (female mice, Cpd 1 treatment) is recorded as “increased”. The “area of black skin compared to control groups” value in data set [1] (female mice, at day 24) is “larger”. In addition, in data set [1] (male mice), the “number of follicles in the subcutis layer of the skin and total follicle counts compared to control group” value is “considerable higher number”; the “adverse effects in relation to general health or body weight” value was “No adverse effects”. Moreover, in data set [1] (male mice, 0.002% (w/v)), the “skin thickness compared to vehicle group” value is “increased”, the “day of skin colour change from pink to light grey (transition from telogen to anagen phase)” value is 10 day and the “animals with visual melanogenesis” value is 2/5. Besides, the “hair growth (score) compared to vehicle” value in data set [1] (male mice, 0.002% (w/v) in PEG-400:EtOH/7:3, from day 5 on) was “significantly higher”. Also, the “hair growth compared to vehicle group” value in data set [1] (male mice, 0.002% (w/v), at day 22) is recorded as “significantly higher”. In addition, the “hair growth (score) compared to 5% Minoxidil” value in data set [1] (male mice, 0.002% (w/v), from day 15) was “significant increase”. Moreover, the “anagen hair follicles (histology, H&E)” value in data set [1] (male mice, Cpd 1-treated groups) is “more”. For the same compound, the “inhibition or stimulation to any of the targets” value in data set [2] is given as less than 50%.
